From patent publication US20250339409A1, “USES OF PAN BET INHIBITORS” (VYNE THERAPEUTICS INC., priority 2021, published 2025)
Like-named read-outs stand apart in the source and are kept apart here.

Assay: Toxicokinetics in dogs after intra-articular injection: plasma concentrations
Format: in vivo, Beagle dogs
Details: dog; for AUC(0-t) / Cmax / Tmax / concentration at 1 h / concentration at 2 h / concentration at 4 h / concentration at 8 h / concentration at 24 h / concentration at 336 h / concentration at 504 h / concentration at 672 h / concentration at 4 weeks: Beagle, plasma; for AUC(0-t): read-out: Plasma AUC0-672 h; for concentration at 1 h / concentration at 2 h / concentration at 4 h / concentration at 8 h / concentration at 24 h / concentration at 336 h / concentration at 504 h / concentration at 672 h / concentration at 4 weeks: other: intra-articular injection; for concentration at 1 h / concentration at 2 h / concentration at 4 h / concentration at 8 h / concentration at 24 h / concentration at 336 h / concentration at 504 h / concentration at 672 h: read-out: Plasma concentration of BETi1; for concentration at 4 weeks: read-out: plasma level at four weeks post-treatment
[1] = both sexes, 7.5 mg/animal, 7.5 mg intra-articular
[2] = both sexes, 75 mg/animal, 75 mg intra-articular
[3] = both sexes, 150 mg/animal, 150 mg intra-articular

Q: Which results are given for `Cn1cc(-c2cccc(O)c2Oc2ccccc2)c2cc[nH]c2c1=O` [BETi1]?
A: AUC(0-t) (7.5 mg/animal, Female, Study Day 1): 472 ng·h/mL; Cmax (7.5 mg/animal, Female, Study Day 1, read-out: Plasma Cmax): 37.6 ng/mL; Tmax (7.5 mg/animal, Female, Study Day 1, read-out: Plasma Tmax): 1.5 h; AUC(0-t) (7.5 mg/animal, Male, Study Day 1): 390 ng·h/mL; Cmax (7.5 mg/animal, Male, Study Day 1, read-out: Plasma Cmax): 32.1 ng/mL; Tmax (7.5 mg/animal, Male, Study Day 1, read-out: Plasma Tmax): 4 h; AUC(0-t) (75 mg/animal, Female, Study Day 1): 3760 ng·h/mL; Cmax (75 mg/animal, Female, Study Day 1, read-out: Plasma Cmax): 56.6 ng/mL; Tmax (75 mg/animal, Female, Study Day 1, read-out: Plasma Tmax): 2 h; AUC(0-t) (75 mg/animal, Male, Study Day 1): 3070 ng·h/mL; Cmax (75 mg/animal, Male, Study Day 1, read-out: Plasma Cmax): 50.2 ng/mL; Tmax (75 mg/animal, Male, Study Day 1, read-out: Plasma Tmax): 2 h; AUC(0-t) (150 mg/animal, Female, Study Day 1): 5990 ng·h/mL; Cmax (150 mg/animal, Female, Study Day 1, read-out: Plasma Cmax): 52.9 ng/mL; Tmax (150 mg/animal, Female, Study Day 1, read-out: Plasma Tmax): 5 h; AUC(0-t) (150 mg/animal, Male, Study Day 1): 3810 ng·h/mL; Cmax (150 mg/animal, Male, Study Day 1, read-out: Plasma Cmax): 48.8 ng/mL; Tmax (150 mg/animal, Male, Study Day 1, read-out: Plasma Tmax): 2 h; concentration at 1 h [1]: 29.6 ng/mL; concentration at 2 h [1]: 32.6 ng/mL; concentration at 4 h [1]: 26.1 ng/mL; concentration at 8 h [1]: 15.9 ng/mL; concentration at 24 h [1]: 2.02 ng/mL; concentration at 336 h [1]: 0 ng/mL; concentration at 504 h [1]: 0 ng/mL; concentration at 672 h [1]: 0 ng/mL; concentration at 1 h [2]: 49.1 ng/mL; concentration at 2 h [2]: 53.4 ng/mL; concentration at 4 h [2]: 39.4 ng/mL; concentration at 8 h [2]: 38.1 ng/mL; concentration at 24 h [2]: 13.5 ng/mL; concentration at 336 h [2]: 1.95 ng/mL; concentration at 504 h [2]: 0.835 ng/mL; concentration at 672 h [2]: 0.505 ng/mL; concentration at 1 h [3]: 42.2 ng/mL; concentration at 2 h [3]: 48.8 ng/mL; concentration at 4 h [3]: 35.8 ng/mL; concentration at 8 h [3]: 48.2 ng/mL; concentration at 24 h [3]: 20.9 ng/mL; concentration at 336 h [3]: 4.72 ng/mL; concentration at 504 h [3]: 2.19 ng/mL; concentration at 672 h [3]: 1.72 ng/mL; concentration at 4 weeks (both sexes, 75 mg/animal, intra-articular, 75 mg): 2 nM; concentration at 4 weeks (both sexes, 150 mg/animal, intra-articular, 150 mg): 5 nM; Tmax (both sexes, intra-articular, calculated, read-out: Tmax, plasma (converted)): ~120 h; Cmax (both sexes, intra-articular, read-out: Cmax, plasma): 50 ng/mL; clearance indicated by plasma levels (intra-articular): rapid clearance with a reduction being seen after 4 hours; plasma AUC lower compared to synovial levels (intra-articular): ~2000 ×; plasma Cmax lower compared to synovial levels (intra-articular): ~1000 ×
